The values below come from patent US4221907A, “Substituted O-α-D and O-β-D-multi-galactopyranosyl and glucopyranosyl 1→4 and 1→6 galactopyranosyl 1→6 α-D-glucopyranoses” (American Cyanamid Company, priority 1979, dated 1980).

Structures can show the parent of a compound that is named as a salt.

In one assay the test system is complement system. To be noted: reported, British Journal of Experimental Pathology, 33, 327-339 (1952); cited from earlier work.
A further assay concerns the target human C1 (Homo sapiens, UniProt P09871). Put plainly: Test Code 026 (C1 inhibitor): activated human C1 destroys fluid phase human C2 in presence of C4. The conditions noted are these: activity in wells, twofold serial dilution; higher well number indicates higher activity. The class given is biochemical. An excerpt: (§1) An active inhibitor protects C2 from C1 and C4; (ii) Test Code 035 (C3-C9 inhibitor)--This test determines the ability of the late components of human complement (C3-C9) to lyse EAC 142 in the presence of appropriate dilutions of the test compound. An active inhibitor protects EAC 142 from lysis by human C3-C9; (iii) Test Code 036 (C-Shunt inhibitor)--In this test human erythrocytes rendered fragile are lysed in autologous serum via the shunt pathway activated by cobra venom factor in the presence of appropriate dilutions of the test compound. Inhibition of the shunt pathway results in failure of lysis; (iv) Forssman Vasculitis Test--Here, the well known complement dependent lesion, Forssman vasculitis, is produced in guinea pigs by intradermal injection of rabbit anti-Forssman antiserum. The lesion is measured in terms of diameter, edema and hemorrhage and the extent to which a combined index of these is inhibited by prior intraperitoneal injection of the test compound at 200 mg/kg is then reported, unless otherwise stated; (v) Forssman Shock Test--Lethal shock is produced in guinea pigs by an i.v. injection of anti-Forssman antiserum and the harmonic mean death time of treated guinea pigs is compared with that of the simultaneous controls; (vi) Complement Level Reduction Test--In this test, the above dosed guinea pigs, or others are bled for serum and the complmenet level is determined in undiluted serum by the capillary tube method of U.S. Pat. No. 3,876,376 and compared to undosed control guinea pigs; (vii) Cap 50 Test--Here, appropriate amounts of the test compound are added to a pool of guinea pig serum in vitro, after which the undiluted serum capillary tube assay referred to above is run. The concentration of compound inhibiting 50% is reported.
(§2) **Activity in wells, a serial dilution assay; higher well number indicate
(§3) higher activity. The serial dilutions are twofold-

A further assay concerns human complement (C3-C9). The experiment in a line: Test Code 035 (C3-C9 inhibitor): lysis of EAC 142 by late components of human complement. The class given is biochemical. The conditions noted are these: activity in wells, twofold serial dilution; higher well number indicates higher activity.
Excerpt: as §1, §2, §3

The next assay has as its system whole complement. Put plainly: In vivo activity (Guinea Pig): serum whole complement by capillary tube assay after dosing. The conditions noted are these: Intraperitoneal, 200 mg/kg.
A further assay deals with shunt pathway. The experiment in a line: Test Code 036 (C-Shunt inhibitor): lysis of human erythrocytes in autologous serum via shunt pathway activated by cobra venom factor. It is filed as biochemical. To be noted: activity in wells, twofold serial dilution; higher well number indicates higher activity.
Excerpt: as §1, §2, §3

In assay [1] the test system is hereditary angio-neurotic edema. The conditions noted are these: reported in the literature; cited from earlier work.
Assay [2] has as its system total hemolytic complement activity. The conditions noted are these: in vitro and in vivo, as judged by reduction in total hemolytic complement activity; cited from earlier work.

Chain of human C1 (P09871 16-688): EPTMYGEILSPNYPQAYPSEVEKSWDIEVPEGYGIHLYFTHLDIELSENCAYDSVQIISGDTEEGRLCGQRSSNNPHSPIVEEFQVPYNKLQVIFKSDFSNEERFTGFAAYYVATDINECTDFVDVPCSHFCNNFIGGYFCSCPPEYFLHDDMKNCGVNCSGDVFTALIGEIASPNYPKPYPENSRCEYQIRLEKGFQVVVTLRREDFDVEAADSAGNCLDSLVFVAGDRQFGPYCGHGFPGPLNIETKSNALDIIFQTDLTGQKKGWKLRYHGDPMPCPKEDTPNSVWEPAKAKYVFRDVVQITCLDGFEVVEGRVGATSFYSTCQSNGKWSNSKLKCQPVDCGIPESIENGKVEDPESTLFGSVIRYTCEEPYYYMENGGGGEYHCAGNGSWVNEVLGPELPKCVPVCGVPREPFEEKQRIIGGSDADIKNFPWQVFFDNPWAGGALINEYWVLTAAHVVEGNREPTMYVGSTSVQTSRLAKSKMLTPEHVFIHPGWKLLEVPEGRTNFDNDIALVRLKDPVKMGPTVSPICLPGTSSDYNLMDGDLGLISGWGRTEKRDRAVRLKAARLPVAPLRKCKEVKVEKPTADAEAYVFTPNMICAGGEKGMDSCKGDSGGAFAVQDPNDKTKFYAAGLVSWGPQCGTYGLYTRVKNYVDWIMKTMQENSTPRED
Chain of human C1 (P00736 18-705 partner): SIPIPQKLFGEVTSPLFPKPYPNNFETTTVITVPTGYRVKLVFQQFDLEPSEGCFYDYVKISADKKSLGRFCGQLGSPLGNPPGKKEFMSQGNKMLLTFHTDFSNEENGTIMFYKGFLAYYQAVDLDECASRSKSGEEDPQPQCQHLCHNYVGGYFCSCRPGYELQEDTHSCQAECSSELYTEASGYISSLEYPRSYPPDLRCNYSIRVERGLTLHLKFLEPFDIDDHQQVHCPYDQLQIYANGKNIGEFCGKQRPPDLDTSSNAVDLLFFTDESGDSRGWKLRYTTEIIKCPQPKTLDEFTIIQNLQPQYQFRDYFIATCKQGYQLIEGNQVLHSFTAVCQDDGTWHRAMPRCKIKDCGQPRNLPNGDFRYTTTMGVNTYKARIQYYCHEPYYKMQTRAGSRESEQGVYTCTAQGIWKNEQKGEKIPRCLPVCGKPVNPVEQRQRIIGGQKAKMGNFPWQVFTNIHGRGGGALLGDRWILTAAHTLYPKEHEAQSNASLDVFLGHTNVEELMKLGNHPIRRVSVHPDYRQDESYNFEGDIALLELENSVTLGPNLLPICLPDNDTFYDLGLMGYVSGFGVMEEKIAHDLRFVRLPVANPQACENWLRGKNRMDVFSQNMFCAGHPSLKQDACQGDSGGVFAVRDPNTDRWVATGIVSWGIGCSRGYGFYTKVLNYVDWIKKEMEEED
Chain of human C1 (P02745 23-245 partner): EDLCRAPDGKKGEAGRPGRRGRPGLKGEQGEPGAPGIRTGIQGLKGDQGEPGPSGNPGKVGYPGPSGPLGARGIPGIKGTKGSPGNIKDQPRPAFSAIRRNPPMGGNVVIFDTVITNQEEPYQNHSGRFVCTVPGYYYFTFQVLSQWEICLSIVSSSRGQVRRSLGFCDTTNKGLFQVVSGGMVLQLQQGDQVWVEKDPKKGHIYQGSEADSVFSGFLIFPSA
Chain of human C1 (P02746 28-253 partner): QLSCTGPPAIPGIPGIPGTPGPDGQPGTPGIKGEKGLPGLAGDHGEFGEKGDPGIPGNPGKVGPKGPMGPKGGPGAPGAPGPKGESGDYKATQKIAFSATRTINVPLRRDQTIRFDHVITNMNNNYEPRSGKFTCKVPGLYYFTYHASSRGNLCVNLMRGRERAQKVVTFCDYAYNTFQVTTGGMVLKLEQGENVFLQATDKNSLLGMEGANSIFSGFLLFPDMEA
Chain of human C1 (P02747 29-245 partner): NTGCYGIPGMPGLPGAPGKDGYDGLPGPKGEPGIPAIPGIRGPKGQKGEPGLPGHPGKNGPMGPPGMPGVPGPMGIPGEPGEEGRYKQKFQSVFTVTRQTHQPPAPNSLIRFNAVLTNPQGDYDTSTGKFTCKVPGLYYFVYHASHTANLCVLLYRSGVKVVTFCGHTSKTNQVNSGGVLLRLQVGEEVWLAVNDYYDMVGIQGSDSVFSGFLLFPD

With `Nc1ccc2cc(S(=O)(=O)[O-])cc(O)c2c1N=Nc1ccc(NC(=O)Nc2ccc(N=Nc3c(N)ccc4cc(S(=O)(=O)[O-])cc(O)c34)c(S(=O)(=O)[O-])c2)cc1S(=O)(=O)[O-].[Na+].[Na+].[Na+].[Na+]` [chlorazol fast pink, 3,3'-ureylenebis[6-(2-amino-8-hydroxy-6-sulfo-1-naphthylazo)benzenesulfonic acid], tetrasodium salt], the anticomplementary effect entry in the assay on complement system is “anticomplementary effect”.

With `O=S(=O)(O)OC[C@H]1O[C@H](OC[C@H]2O[C@@H](OC[C@H]3O[C@H](OC[C@H]4O[C@H](OS(=O)(=O)O)[C@H](OS(=O)(=O)O)[C@@H](OS(=O)(=O)O)[C@@H]4OS(=O)(=O)O)[C@H](OS(=O)(=O)O)[C@@H](OS(=O)(=O)O)[C@H]3OS(=O)(=O)O)[C@H](OS(=O)(=O)O)[C@@H](OS(=O)(=O)O)[C@@H]2OS(=O)(=O)O)[C@H](OS(=O)(=O)O)[C@@H](OS(=O)(=O)O)[C@H]1OS(=O)(=O)O` [drawing 9, O-α-D-galactopyranosyl(1→6)-O-β-D-glucopyranosyl(1→6)-O-α-D-galactopyranosyl(1→6)-α-D-glucopyranose [gal 1α,6 glc 1β,6 gal 1α,6 glc] tetradecakis (H-sulfate), tetradecasodium salt], the “C1 026 Wells” value on human C1 is given as “+9 Wells”. Besides, in the assay on human complement (C3-C9), the “C-Late 035 Wells” value is on record as “+1 Wells”. Also, the “In vivo Activity (Guinea Pig) % Inhibition” value was -44% with whole complement (30 min), -55% with whole complement (60 min) and -80% in the assay with whole complement (120 min). In addition, the “Shunt Inhibition 036 Wells” value in the assay on shunt pathway was “+6 Wells”.

For `O=S(=O)(O)OC[C@H]1O[C@@H](OC[C@H]2O[C@H](OC[C@H]3OC(OS(=O)(=O)O)[C@H](OS(=O)(=O)O)[C@@H](OS(=O)(=O)O)[C@@H]3OS(=O)(=O)O)[C@H](OS(=O)(=O)O)[C@@H](OS(=O)(=O)O)[C@H]2OS(=O)(=O)O)[C@H](OS(=O)(=O)O)[C@@H](OS(=O)(=O)O)[C@@H]1O[C@H]1O[C@H](COS(=O)(=O)O)[C@@H](OS(=O)(=O)O)[C@H](OS(=O)(=O)O)[C@H]1OS(=O)(=O)O` (stereo partly drawn) [drawing 11, O-α-D-glucopyranosyl(1→4)-O-β-D-glucopyranosyl(1→6)-O-α-D-galactopyranosyl(1→6)-D-glucopyranose [glc 1α,4 glc 1β,6 gal 1α,6 glc] tetradecakis (H-sulfate), tetradecasodium salt], the “C1 026 Wells” value at human C1 is recorded as “+10 Wells”. For the same molecule, the “C-Late 035 Wells” value in the assay with human complement (C3-C9) is “+1 Wells”. Besides, the entries for the “In vivo Activity (Guinea Pig) % Inhibition” value in the assay on whole complement (30 min), in the assay with whole complement (60 min) and in the assay with whole complement (120 min) were -54%, -45% and -39%, respectively. For the same molecule, the “Shunt Inhibition 036 Wells” value in the assay with shunt pathway is on record as “+6 Wells”.

On to `O=S(=O)(O)OC[C@H]1O[C@@H](OC[C@H]2O[C@H](OC[C@H]3OC(OS(=O)(=O)O)[C@H](OS(=O)(=O)O)[C@@H](OS(=O)(=O)O)[C@@H]3OS(=O)(=O)O)[C@H](OS(=O)(=O)O)[C@@H](OS(=O)(=O)O)[C@H]2OS(=O)(=O)O)[C@H](OS(=O)(=O)O)[C@@H](OS(=O)(=O)O)[C@@H]1O[C@H]1O[C@H](COS(=O)(=O)O)[C@@H](O[C@H]2O[C@H](COS(=O)(=O)O)[C@@H](O[C@H]3O[C@H](COS(=O)(=O)O)[C@@H](O[C@H]4O[C@H](COS(=O)(=O)O)[C@@H](O[C@H]5O[C@H](COS(=O)(=O)O)[C@@H](O[C@H]6O[C@H](COS(=O)(=O)O)[C@@H](OS(=O)(=O)O)[C@H](OS(=O)(=O)O)[C@H]6OS(=O)(=O)O)[C@H](OS(=O)(=O)O)[C@H]5OS(=O)(=O)O)[C@H](OS(=O)(=O)O)[C@H]4OS(=O)(=O)O)[C@H](OS(=O)(=O)O)[C@H]3OS(=O)(=O)O)[C@H](OS(=O)(=O)O)[C@H]2OS(=O)(=O)O)[C@H](OS(=O)(=O)O)[C@H]1OS(=O)(=O)O` (stereo partly drawn) [drawing 16, O-α-D-glucopyranosyl(1→4)-O-α-D-glucopyranosyl(1→4)-O-α-D-glucopyranosyl(1→4)-O-α-D-glucopyranosyl(1→4)-O-α-D-glucopyranosyl(1→4)-O-α-D-glucopyranosyl(1→4)-O-β-D-glucopyranosyl(1→6)-O-α-D-galactopyranosyl(1→6)-D-glucopyranose [(glc 1α,4)6 glc 1β,6 gal 1α,6 glc] nonacosakis (H-sulfate), non-acosasalt with trimethylamine], for which, on human C1, the “C1 026 Wells” value is “+10 Wells”. Besides, the “C-Late 035 Wells” value in the assay with human complement (C3-C9) was “+1 Wells”. The “Shunt Inhibition 036 Wells” value in the assay with shunt pathway is on record as “+5 Wells”.

Consider `O=S(=O)(O)OC[C@H]1O[C@@H](OC[C@H]2O[C@H](OC[C@H]3OC(OS(=O)(=O)O)[C@H](OS(=O)(=O)O)[C@@H](OS(=O)(=O)O)[C@@H]3OS(=O)(=O)O)[C@H](OS(=O)(=O)O)[C@@H](OS(=O)(=O)O)[C@H]2OS(=O)(=O)O)[C@H](OS(=O)(=O)O)[C@@H](OS(=O)(=O)O)[C@@H]1O[C@H]1O[C@H](COS(=O)(=O)O)[C@@H](O[C@H]2O[C@H](COS(=O)(=O)O)[C@@H](O[C@H]3O[C@H](COS(=O)(=O)O)[C@@H](O[C@H]4O[C@H](COS(=O)(=O)O)[C@@H](O[C@H]5O[C@H](COS(=O)(=O)O)[C@@H](O[C@H]6O[C@H](COS(=O)(=O)O)[C@@H](OS(=O)(=O)O)[C@H](OS(=O)(=O)O)[C@H]6OS(=O)(=O)O)[C@H](OS(=O)(=O)O)[C@H]5OS(=O)(=O)O)[C@H](OS(=O)(=O)O)[C@H]4OS(=O)(=O)O)[C@H](OS(=O)(=O)O)[C@H]3OS(=O)(=O)O)[C@H](OS(=O)(=O)O)[C@H]2OS(=O)(=O)O)[C@H](OS(=O)(=O)O)[C@H]1OS(=O)(=O)O` (stereo partly drawn) [drawing 17, O-α-D-glucopyranosyl(1→4)-O-α-D-glucopyranosyl(1→4)-O-α-D-glucopyranosyl(1→4)-O-α-D-glucopyranosyl(1→4)-O-α-D-glucopyranosyl(1→4)-O-α-D-glucopyranosyl(1→4)-O-β-D-glucopyranosyl(1→6)-O-α-D-galactopyranosyl(1→6)-D-glucopyranose [(glc 1α,4)6 glc 1β,6 gal 1α,6 glc] nonacosakis (H-sulfate), non-acosasodium salt], for which the “C1 026 Wells” value on human C1 is reported as “+9 Wells”. Besides, in the assay with human complement (C3-C9), the “C-Late 035 Wells” value was “+3 Wells”. The “Shunt Inhibition 036 Wells” value in the assay with shunt pathway was “+5 Wells”.

Consider `NCCCCCC(=O)O` [epsilon-aminocaproic acid], for which, in assay [1], the “treatment of hereditary angio-neurotic edema” value is on record as “used with success”.

For `NC[C@H]1CC[C@H](C(=O)O)CC1` [tranexamic acid], in assay [1], the “treatment of hereditary angio-neurotic edema” value is listed as “used with success”.

Take heparin: in the assay with complement system, the anticomplementary effect result was “anticomplementary effect”.

On to pentosan-polysulfoester, for which the “anticomplementary activity on human serum” value in assay [2] is “anticomplementary activity on human serum, both in vitro and in vivo”.
